Measurements as given in ChEMBL document CHEMBL1139284, “Synthesis and evaluation of novel photoreactive alpha-amino acid analog carrying acidic and cleavable functions” (Bioorg Med Chem Lett, 2009).
Calls of active or inactive are those of the source. No cut-off for these calls is given here.

Experiments:
[1] = molecular target: Glutamyl endopeptidase (Staphylococcus aureus) (UniProt P0C1U8); test: Binding affinity to Staphylococcus aureus V8 glutamyl endopeptidase after 40 mins of UV irradiation by photoaffinity labeling assay
Glutamyl endopeptidase = Glutamyl endopeptidase (Staphylococcus aureus, UniProt P0C1U8); test: Binding affinity to Staphylococcus aureus V8 glutamyl endopeptidase; conditions: read-out: Ki(app)

Activity [1]	Ki (Glutamyl endopeptidase) [µM]	SMILES
inactive	–	CC(C)(C)OC(=O)N[C@@H](CCC(=O)OCc1ccccc1)C(N)=O
–	162	CC(C)(C)OC(=O)N[C@@H](CS(=O)(=O)NC(=O)c1ccc(C2(C(F)(F)F)N=N2)cc1)C(=O)NCCOCCOCCNC(=O)CCCC[C@@H]1SCC2NC(=O)NC21 (some centres undefined)
Active	–	CC(C)(C)OC(=O)N[C@@H](CS(=O)(=O)NC(=O)c1ccccc1)C(N)=O
Active	–	CC(C)(C)OC(=O)N[C@@H](CCC(=O)O)C(N)=O
